Test [1] deals with SK-channels. The conditions noted are these: all SK-channels, rather unspecifically; cited from earlier work.
Test [2] deals with T1, KCNN3 (Homo sapiens, UniProt Q9UGI6, DUP76-80).
T1 construct: expressed in transfected cells
Nature of the test: Z′-value assessment of the cellular KCNN3 screening assay with fluoxetine. The note with it: CHO-KCNN3 cells, 100 μM fluoxetine, ionomycin 500 nM. Type of test: cell-based. As for the experimental part: The difference of the fluorescence intensity before addition of ionomycin and after the 120 seconds incubation period was determined where the cells were incubated with fluoxetine. The influx of calcium mediated by ionomycin leads to an opening of the channels and a subsequent hyperpolarization of the resting membrane potential of the cells. […] The mean value of the difference of the fluorescence in presence of ionomycin and fluoxetine in the above experiment is 15912 rfu (standard deviation 3636 rfu) and the mean value of the fluorescence of cells in presence of ionomycin only is 124086 rfu (standard deviation 12615 rfu). The Z′-value is calculated to be 0.55. The Z′ in a second series of experiments was determined to be 0.59.
In order to optimize the KCNN3 assay for screening purposes the Z′-value was assessed (FIG. 16). After 24 hours of incubation the medium was removed from a 384-well plate where CHO-KCNN3 cells were grown. 20 μl dye solution in assay buffer was pipetted onto the cells and afterwards another 20 μl assay buffer only or 20 μl assay buffer plus 100 μM fluoxetine was added. After 30 minutes of incubation at 37 ° C. the plate was transferred to the automated pipetting device/fluorescence reader (FlexStation, Molecular Devices) and 10 μl ionomycin was added at a final concentration of 500 nM. Fluorescence was then measured for 120 sec every 10 sec. […]

For test [3], the system named is CHO wild type cells (CHO/−). Put plainly: cellular membrane potential assay in CHO wild type cells (control cell line). Type of test: cell-based.
Description: (§1) The minimum fluorescence values during the following 5 minutes measurement period were subtracted from the maximum signal recorded at the beginning of the experiment and plotted against the concentration of the substances.
The assay makes use of membrane potential sensitive, fluorescent dyes and the activation of the calcium-sensitive KCNN3-potassium channel by the addition of ionomycin. Upon entry of calcium into the cells KCNN3 is activated and thus impacts on the resting membrane potential of the cells which is mirrored by the fluorescent dye. In more detail: CHO cells expressing KCNN3 are cultured on black 384-well plates with clear bottom at a density of 1.5.104 for 24 hours in a humidified incubator at 37° C. The cell culture medium is replaced with assay buffer (1 mM KCl, 2.3 mM CaCl2, 5 mM NaHCO3, 1 mM MgCl2, 154 mM NaCl, 5.5 mM d(+)-glucose, 5 mM HEPES, pH 7.4) containing 5 μM DiBAC4(3). After 30 min of cell loading with the dye at 37° C. fluorescence (excitation 488 nm, emission 538 nm) is read by using a fluorescence plate reader (Flex-station, Molecular Devices). Activation of KCNN3 is achieved by the addition of ionomycin at a 1μM final concentration (FIGS. 14 and 15). […] Fluorescence is monitored for a period of 5 min.
Test [4] concerns the target T1, KCNN3. Nature of the test: cellular KCNN3 screening assay (membrane potential dye DiBAC4(3), ionomycin activation) in CHO/KCNN3 cells. Type of test: cell-based. The note with it: incubated 30 minutes before ionomycin (1 μM final), fluorescence over 5 minutes.
Description: Upon entry of calcium into the cells the potassium channel is activated and thus impacts on the resting membrane potential of the cells which is mirrored by the fluorescent dye. The minimum fluorescence values measured during the following 5 minutes period were subtracted from the maximum signal recorded at the beginning of the experiment and plotted against the concentration of the substances incubated with the cells. The values obtained in the absence and at the lowest concentrations are indicative of a fully active potassium channel which leads to a hyperpolarization of the membrane potential.
as §1
The assay makes use of membrane potential sensitive, fluorescent dyes and the activation of the calcium-sensitive KCNN3-potassium channel by the addition of ionomycin. Upon entry of calcium into the cells KCNN3 is activated and thus impacts on the resting membrane potential of the cells which is mirrored by the fluorescent dye. […] After 30 min of cell loading with the dye at 37° C. fluorescence (excitation 488 nm, emission 538 nm) is read by using a fluorescence plate reader (Flex-station, Molecular Devices). […] Fluorescence is monitored for a period of 5 min.

One may read the IC50 as the concentration that gives 50% inhibition. Higher therefore signals a need for much substance.

The structures appear in SMILES notation.

Turning to `c1cc2cc(c1)C[n+]1ccc(c3ccccc31)NCc1ccc(cc1)CNc1cc[n+](c3ccccc13)C2` [UCL-1684], in test [1], the “block of SK-channels, potency” value is “lesser potency compared to the toxins”.

`CNCCC(Oc1ccc(C(F)(F)F)cc1)c1ccccc1` (stereo not shown) [fluoxetine]: the “mean value of the difference of the fluorescence before addition of ionomycin and after 120 seconds” value in test [2] (30 minutes, standard deviation 3636 rfu) was determined as 15912 rfu. Further, the “block of the KCNN3 ion channel” value in test [2] was “the ion channel is blocked”.

For the compound `CC[N+](CC)(CC)CCOc1cccc(OCC[N+](CC)(CC)CC)c1OCC[N+](CC)(CC)CC` [gallamine], in test [1], the “block of SK-channels, potency” value was “lesser potency compared to the toxins”.

As to `C[C@H](CCC(=O)O)C[C@H](C)C[C@H](C)C(=O)/C=C(\O)[C@H](C)C[C@H](C)C/C=C/[C@@H](C)[C@@H](O)[C@@H](C)[C@@H](O)C[C@@H]1CC[C@@](C)([C@H]2CC[C@@](C)([C@@H](C)O)O2)O1` [ionomycin], the “effect on fluorescence (membrane potential) in CHO wild type cells” value in test [3] is “no effect”.

In turn, `CN1CCN(CCCN2c3ccccc3Sc3ccc(C(F)(F)F)cc32)CC1` [trifluorperatine] returned an IC50 in test [4] of 18 µM.

With `COc1cc2c3cc1Oc1cc(ccc1O)C[C@@H]1c4c(cc(OC)c(O)c4Oc4ccc(cc4)C[C@@H]3N(C)CC2)CC[N+]1(C)C` [tubocurarine], the “block of SK-channels, potency” value in test [1] is “lesser potency compared to the toxins”.

Values taken from patent US20110010780A1, “KCNN3 AS DIAGNOSTIC AND THERAPEUTIC TARGET FOR NEURODEGENERATIVE DISEASES” (EVOTEC NeuroSciences GmbH, priority 2005, published 2011).
